The source of these data is US6750228B1, “Aromatic sulfone hydroxamic acid metalloprotease inhibitor” (priority 1997, dated 2004).

Each structure is given as a SMILES string.

What all share (experiment): biochemical
In one assay the target is T1, MMP-2 (Homo sapiens, UniProt P08253).
T1 construct: made in house; provided by Dr. Gregory Goldberg, Washington University
T1 sequence (P08253 110-660): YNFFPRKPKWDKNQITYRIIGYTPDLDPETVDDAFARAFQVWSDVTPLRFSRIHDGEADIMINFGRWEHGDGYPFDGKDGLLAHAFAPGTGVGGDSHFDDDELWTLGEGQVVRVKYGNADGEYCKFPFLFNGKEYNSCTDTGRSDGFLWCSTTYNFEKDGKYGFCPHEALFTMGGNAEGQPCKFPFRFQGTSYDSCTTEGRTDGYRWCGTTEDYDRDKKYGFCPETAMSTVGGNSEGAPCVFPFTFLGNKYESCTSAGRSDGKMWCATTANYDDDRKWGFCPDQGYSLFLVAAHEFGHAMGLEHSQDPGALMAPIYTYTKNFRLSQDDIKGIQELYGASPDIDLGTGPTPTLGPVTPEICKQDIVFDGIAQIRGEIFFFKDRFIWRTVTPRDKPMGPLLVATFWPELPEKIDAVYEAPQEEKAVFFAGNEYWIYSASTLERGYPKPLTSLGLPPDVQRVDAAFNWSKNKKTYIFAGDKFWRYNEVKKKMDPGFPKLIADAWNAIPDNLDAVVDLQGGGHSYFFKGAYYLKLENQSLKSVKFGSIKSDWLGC
The conditions noted are these: recombinant human MMP-2, MCA peptide substrate 4 μM, pH 7.5, room temperature; read-out: MMP-2 IC50. The gist of the method: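 APMA- or trypsin-activated enzymes were preincubated with inhibitor for 5 min at room temperature, then the fluorogenic substrate MCA-Pro-Leu-Gly-Leu-Dpa-Ala-Arg-NH2 was added to a final 4 μM.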

Another assay addresses T2, MMP-13 (Homo sapiens, UniProt P45452).
T2 construct: made in house; host or cells: baculovirus / insect cells
As to conditions: recombinant human MMP-13, MCA peptide substrate 4 μM, pH 7.5, room temperature; read-out: MMP-13 IC50. An outline of the steps:
(§1)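 Assay buffer 100 mM Tris-HCl, 100 mM NaCl, 10 mM CaCl2, pH 7.5. Activated MMP + inhibitor, 5 min RT; then methoxycoumarin peptide substrate, 4 μM final. Readout fluorescence; IC50 calculated.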

The next assay deals with T3, MMP-1 (Homo sapiens, UniProt P03956).
T3 construct: made in house; host or cells: transfected HT-1080 cells (provided by Dr. Harold Welgus, Washington University)
T3 sequence (P03956 100-469): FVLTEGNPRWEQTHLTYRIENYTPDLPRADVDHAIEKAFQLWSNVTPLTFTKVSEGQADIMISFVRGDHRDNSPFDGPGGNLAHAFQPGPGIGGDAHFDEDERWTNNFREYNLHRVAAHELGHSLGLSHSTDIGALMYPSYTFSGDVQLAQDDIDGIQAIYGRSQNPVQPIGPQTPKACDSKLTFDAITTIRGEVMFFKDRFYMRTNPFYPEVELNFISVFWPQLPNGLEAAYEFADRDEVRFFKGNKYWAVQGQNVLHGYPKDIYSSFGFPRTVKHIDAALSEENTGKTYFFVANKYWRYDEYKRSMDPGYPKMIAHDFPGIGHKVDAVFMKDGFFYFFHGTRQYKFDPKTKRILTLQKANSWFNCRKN
As to conditions: recombinant human MMP-1, MCA peptide substrate 4 μM, pH 7.5, room temperature; read-out: MMP-1 IC50. An outline of the steps:
as §1

Regarding `CC(C)OCc1ccc(COC2CCN(c3ccc(S(=O)(=O)C4(C(=O)NO)CCOCC4)cc3)CC2)cc1` [Example 554], the IC50 is 140 nM at MMP-2, 3.7 nM on MMP-13 and greater than 10000 nM at MMP-1.
For `CC(C)COCc1ccc(COC2CCN(c3ccc(S(=O)(=O)C4(C(=O)NO)CCOCC4)cc3)CC2)cc1` [Example 555], the IC50 on MMP-2 is 220 nM; on MMP-13, 3.7 nM; at MMP-1 it was greater than 10000 nM.
Consider `CCC(C)OCc1ccc(COC2CCN(c3ccc(S(=O)(=O)C4(C(=O)NO)CCOCC4)cc3)CC2)cc1` (stereo not drawn) [Example 556], for which the 50% inhibitory concentration (IC50) at MMP-2 is 170 nM; at MMP-13, 4.5 nM; on MMP-1 it was greater than 10000 nM.
The like results for `N#Cc1ccccc1-c1ccc(COC2CCN(c3ccc(S(=O)(=O)C4(C(=O)NO)CCOCC4)cc3)CC2)cc1` [Example 557] were, in that order, 200 nM, 16.9 nM and greater than 10000 nM.
Regarding `O=C(NO)C1(S(=O)(=O)c2ccc(N3CCC(OCc4ccc(F)cc4F)CC3)cc2)CCOCC1` [Example 558], the results for the IC50 on MMP-2, on MMP-13 and on MMP-1 were 66.4 nM, 4.5 nM and greater than 10000 nM, respectively.
For the compound `N#Cc1ccccc1COC1CCN(c2ccc(S(=O)(=O)C3(C(=O)NO)CCOCC3)cc2)CC1` [Example 559], the concentration for half-maximal inhibition (IC50) at MMP-2 was 80 nM; at MMP-13, 7.2 nM; at MMP-1, greater than 10000 nM.
For the compound `N#Cc1cccc(COC2CCN(c3ccc(S(=O)(=O)C4(C(=O)NO)CCOCC4)cc3)CC2)c1` [Example 560], the IC50 at MMP-2 is 306 nM; on MMP-13, 4.5 nM; at MMP-1 it was greater than 10000 nM.
Regarding `COc1c(F)c(F)c(COC2CCN(c3ccc(S(=O)(=O)C4(C(=O)NO)CCOCC4)cc3)CC2)c(F)c1F` [Example 561], the 50% inhibitory concentration (IC50) was 500 nM at MMP-2, 6 nM on MMP-13 and greater than 10000 nM at MMP-1.
For `CCOC1CCCN(c2ccc(S(=O)(=O)C3(C(=O)NO)CCOCC3)cc2)C1` (stereo not drawn) [Example 562], in that order: 6300 nM, 1200 nM and greater than 10000 nM.
For `CCOCC1CCCN(c2ccc(S(=O)(=O)C3(C(=O)NO)CCOCC3)cc2)C1` (stereo not drawn) [Example 563], the IC50 at MMP-2 is 235 nM; on MMP-13, 70 nM; at MMP-1 it was greater than 10000 nM.
Regarding `O=C(NO)C1(S(=O)(=O)c2ccc(N3CCC(O)CC3)cc2)CCOCC1` [Example 564], the IC50 at MMP-2 is 550 nM; at MMP-13 it was 150 nM; at MMP-1, greater than 10000 nM.
On to `O=C(NO)C1(S(=O)(=O)c2ccc(N3CCC(OCc4ccc(COCC(F)(F)C(F)(F)F)cc4)CC3)cc2)CCOCC1` [Example 565], for which the results for the IC50 on MMP-2, on MMP-13 and at MMP-1 were 700 nM, 5.5 nM and greater than 10000 nM, respectively.
For `CN(C)Cc1ccc(COC2CCN(c3ccc(S(=O)(=O)C4(C(=O)NO)CCOCC4)cc3)CC2)cc1` [Example 566], in that order: 57.1 nM, 15.8 nM and greater than 10000 nM.
Regarding `O=C(NO)C1(S(=O)(=O)c2ccc(N3CCC(Oc4ccc(C(F)(F)F)cc4)CC3)cc2)CCOCC1` [Example 567], the IC50 is 87.7 nM at MMP-2, 5 nM on MMP-13 and greater than 10000 nM at MMP-1.
In the case of `O=C(NO)C1(S(=O)(=O)c2ccc(N3CCC(Oc4ccccc4C(F)(F)F)CC3)cc2)CCOCC1` [Example 568], the 50% inhibitory concentration (IC50) was 4600 nM at MMP-2, 120 nM at MMP-13 and greater than 10000 nM on MMP-1.
As for `O=C(NO)C1(S(=O)(=O)c2ccc(N3CCC(Oc4ccc([N+](=O)[O-])c(C(F)(F)F)c4)CC3)cc2)CCOCC1` [Example 569], the results for the IC50 on MMP-2, at MMP-13 and on MMP-1 were 87.7 nM, 16.9 nM and greater than 10000 nM, respectively.
For `O=C(NO)C1(S(=O)(=O)c2ccc(N3CCC(Oc4c(Cl)cc(C(F)(F)F)cc4Cl)CC3)cc2)CCOCC1` [Example 570], in that order: greater than 10000 nM, 290 nM and greater than 10000 nM.
For `O=C(NO)C1(S(=O)(=O)c2ccc(N3CCC(Oc4ccc(C(F)(F)F)cc4[N+](=O)[O-])CC3)cc2)CCOCC1` [Example 571], in that order: 140 nM, 28.6 nM and greater than 10000 nM.
In the case of `O=C(NO)C1(S(=O)(=O)c2ccc(N3CCC(OCc4cccc(Cl)c4)CC3)cc2)CCOCC1` [Example 573], the IC50 was 235 nM on MMP-2, 11.4 nM on MMP-13 and greater than 10000 nM at MMP-1.
For the compound `O=C(NO)C1(S(=O)(=O)c2ccc(N3CCC(OCc4ccccc4Cl)CC3)cc2)CCOCC1` [Example 574], the results for the IC50 on MMP-2, at MMP-13 and on MMP-1 were 220 nM, 10.6 nM and greater than 10000 nM, respectively.
As to `O=C(NO)C1(S(=O)(=O)c2ccc(N3CCC(OCc4cccc(F)c4)CC3)cc2)CCOCC1` [Example 575], the figures for the IC50 on MMP-2, on MMP-13 and at MMP-1 were 110 nM, 10.7 nM and greater than 10000 nM, respectively.
`O=C(NO)C1(S(=O)(=O)c2ccc(N3CCC(OCc4ccccc4F)CC3)cc2)CCOCC1` [Example 576]: the values for the IC50 at MMP-2, at MMP-13 and on MMP-1 were 78 nM, 8.8 nM and greater than 10000 nM, respectively.
Take `O=C(NO)C1(S(=O)(=O)c2ccc(N3CCC(OCc4ccncc4)CC3)cc2)CCOCC1` [Example 577]: the IC50 at MMP-2 was 2200 nM; at MMP-13, 107 nM; on MMP-1, greater than 10000 nM.
For `O=C(NO)C1(S(=O)(=O)c2ccc(N3CCC(OCc4ccccn4)CC3)cc2)CCOCC1` [Example 578], in that order: 2000 nM, 160 nM and greater than 10000 nM.
For `O=C(NO)C1(S(=O)(=O)c2ccc(N3CCC(OCc4ccc(Br)cc4)CC3)cc2)CCOCC1` [Example 579], the IC50 at MMP-2 is 100 nM; on MMP-13, 2.7 nM; at MMP-1, greater than 10000 nM.
Take `O=C(NO)C1(S(=O)(=O)c2ccc(N3CCC(OCc4cccnc4)CC3)cc2)CCOCC1` [Example 580]: the IC50 on MMP-2 is 700 nM; on MMP-13, 37.2 nM; on MMP-1 it was greater than 10000 nM.
In the case of `CC1CN(c2ccc(S(=O)(=O)C3(C(=O)NO)CCOCC3)cc2)CCC1OCc1ccccc1` (stereo not drawn) [Example 581], the IC50 at MMP-2 is 480 nM; at MMP-13, 27 nM; on MMP-1, greater than 10000 nM.
With `CC1CN(c2ccc(S(=O)(=O)C3(C(=O)NO)CCOCC3)cc2)CCC1OCc1ccc(F)cc1` (stereo not drawn) [Example 582], the results for the IC50 on MMP-2, on MMP-13 and at MMP-1 were 1800 nM, 30 nM and greater than 10000 nM, respectively.
For `CC1CN(c2ccc(S(=O)(=O)C3(C(=O)NO)CCOCC3)cc2)CCC1OCc1ccc(C(F)(F)F)cc1` (stereo not drawn) [Example 583], in that order: 4700 nM, 70 nM and greater than 10000 nM.
In the case of `CN(CCc1ccccc1)C1CCN(c2ccc(S(=O)(=O)C3(C(=O)NO)CCOCC3)cc2)CC1` [Example 584], the IC50 on MMP-2 is 3500 nM; on MMP-13 it was 2700 nM; at MMP-1, greater than 10000 nM.
For `O=C(NO)C1(S(=O)(=O)c2ccc(N3CC=C(c4ccccc4)CC3)cc2)CCOCC1` [Example 587], in that order: 1 nM, 1.8 nM and greater than 10000 nM.
`Cn1c(=O)n(C2CCN(c3ccc(S(=O)(=O)C4(C(=O)NO)CCOCC4)cc3)CC2)c2ccccc21` [Example 589]: the IC50 on MMP-2 is greater than 10000 nM; at MMP-13 it was 70 nM; at MMP-1, greater than 10000 nM.
`CCCC(=O)N1CCN(c2ccc(S(=O)(=O)C3(C(=O)NO)CCOCC3)cc2)CC1` [Example 590]: the IC50 at MMP-2 was 80 nM; on MMP-13 it was 121 nM; at MMP-1 it was greater than 10000 nM.
For `CCCCC(=O)N1CCN(c2ccc(S(=O)(=O)C3(C(=O)NO)CCOCC3)cc2)CC1` [Example 591], in that order: 730 nM, 70 nM and greater than 10000 nM.
With `CCCCCC(=O)N1CCN(c2ccc(S(=O)(=O)C3(C(=O)NO)CCOCC3)cc2)CC1` [Example 592], the IC50 was 690 nM at MMP-2, 57 nM at MMP-13 and greater than 10000 nM at MMP-1.

One may read the IC50 as the concentration at which inhibition is half-maximal.
